Type in all cases: binding
The target in one assay is T1, KIF11 (Homo sapiens, UniProt P52732).
T1 construct: endogenous in cells; host or cells: HEK293 / HEK293T (ATCC; CRL-11268) lysate
T1 sequence (P52732 1-1056): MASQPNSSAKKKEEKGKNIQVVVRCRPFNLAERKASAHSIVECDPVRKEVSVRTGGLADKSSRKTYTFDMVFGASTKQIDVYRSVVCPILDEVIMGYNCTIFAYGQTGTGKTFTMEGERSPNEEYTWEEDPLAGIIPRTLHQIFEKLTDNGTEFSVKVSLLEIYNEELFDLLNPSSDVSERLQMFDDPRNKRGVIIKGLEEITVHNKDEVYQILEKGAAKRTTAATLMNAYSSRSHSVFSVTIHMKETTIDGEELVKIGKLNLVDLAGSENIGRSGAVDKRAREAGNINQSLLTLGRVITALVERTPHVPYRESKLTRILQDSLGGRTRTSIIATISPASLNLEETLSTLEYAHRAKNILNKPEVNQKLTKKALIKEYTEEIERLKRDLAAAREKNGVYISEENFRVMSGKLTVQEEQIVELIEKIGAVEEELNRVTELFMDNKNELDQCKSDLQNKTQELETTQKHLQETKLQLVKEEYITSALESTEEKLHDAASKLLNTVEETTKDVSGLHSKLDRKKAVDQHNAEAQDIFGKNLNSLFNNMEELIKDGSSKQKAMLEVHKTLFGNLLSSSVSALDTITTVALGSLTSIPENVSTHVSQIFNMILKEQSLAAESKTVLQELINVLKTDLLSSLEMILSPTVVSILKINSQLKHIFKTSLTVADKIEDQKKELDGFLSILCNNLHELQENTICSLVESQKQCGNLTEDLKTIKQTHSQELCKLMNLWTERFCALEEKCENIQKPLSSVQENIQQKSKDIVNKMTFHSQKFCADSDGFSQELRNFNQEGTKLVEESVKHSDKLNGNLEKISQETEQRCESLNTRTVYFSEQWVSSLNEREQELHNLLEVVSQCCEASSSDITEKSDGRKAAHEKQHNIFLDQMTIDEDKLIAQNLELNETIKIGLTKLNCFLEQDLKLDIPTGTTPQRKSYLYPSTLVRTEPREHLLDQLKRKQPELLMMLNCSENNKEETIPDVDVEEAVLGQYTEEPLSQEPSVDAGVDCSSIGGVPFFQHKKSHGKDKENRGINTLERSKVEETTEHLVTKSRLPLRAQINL
The assay is described as follows: Chemoproteomic competition pulldown assay (affinity matrix, LC-MS/MS) in HEK293T lysate. Particulars: over 4000 proteins identified.

Another assay relates to LC3/GABARAP. Described as above. Particulars: HEK293T cell lysate. Here is the method:
Preparation of Affinity Matrix 10O5 and 8F20: Compounds 18 and 19 (1 µM) were linked to DMSO-washed NHS-activated ( ~ […] beads) sepharose beads (1 mL) and triethylamine (20 µL) in DMSO (2 mL) on an end-over-end shaker overnight at RT in the dark. Aminoethanol (50 µL) was then added to inactivate the remaining NHS-activated carboxylic acid groups. […] Successful immobilization was controlled by LC-MS and Kaiser-test[46].
Preparation of cell lysates for affinity pulldown assays: HEK293 cells (ATCC; CRL-11268) were cultured in DMEM (PAN Biotech). All media were supplemented with 10% FBS (PAN Biotech) and cells were internally tested for Mycoplasma contamination. […] The protein amount of cell lysates was determined by Bradford assay and adjusted to a concentration of 5 mg/mL[46]. […]
LC-MSMS measurement of (competition) pulldown assays: Peptides were analyzed via LC-MS/MS on a Dionex Ultimate3000 nano HPLC coupled to an Orbitrap Fusion Lumos mass spectrometer, operated via the Thermo Scientific Xcalibur software. […]
The mass spectrometer was operated in data dependent mode, automatically switching between MS1 and MS2 spectra. […] Up to 12 peptide precursors were isolated (isolation width of 1.2 Th, maximum injection time of 75 ms, AGC value of 2e5), fragmented by HCD using 25 % […] normalized collision energy (NCE) and analyzed in the Orbitrap at a resolution of 15,000. […]

Assay [1] concerns LC3/GABARAPs (human Atg8 family). Briefly: FP assay with Cy5-labelled p62 LIR tracer, statements on all LC3/GABARAPs.
Assay [2] deals with T2, LC3A (Homo sapiens, UniProt Q9H492). Briefly: Isothermal titration calorimetry (ITC). The settings on record: replicates 1-3, rebuttal letter. The source says: To minimize nonspecific dilution heat effects, DMSO concentrations in the protein and compound samples were matched. […] For this protocol, the chamber was pre-equilibrated with the protein, and the test compounds were titrated while continuously measuring the rate of exothermic heat evolution. The heat of binding was integrated, corrected, and fitted to an independent single-binding site model based on the manufacturer’s instructions, from which thermodynamic parameters (ΔH and TΔS), equilibrium association and dissociation constants (KA and KD, respectively), and stoichiometry (n) were calculated using TA Instruments NanoAnalyze software.
(In general: ITC needs no label: the signal is the heat of the interaction.)

In assay [3] the target is T2, LC3A. Briefly: Isothermal titration calorimetry (ITC). The settings on record: rounded, rebuttal letter; Novobiocin in reverse titration.

“And” between values parts separate entries of the source, which are not always exact repeats. Equal values may be shown once.

Protocol for KIF11: The experiment was performed once at each concentration (n = 1).
The beads were washed (1 × 1 mL of lysis buffer without inhibitors and only 0.4% Igepal, 2 × 2 mL of lysis buffer without inhibitors and only 0.2% Igepal, and 3x lysis buffer without Igepal). The remaining proteins were denatured in 40 µl of 8 M urea buffer (with 10 mM DTT in 40 mM Tris-HCl, pH 7.4), alkylated by adding 5 µl of 55 mM chloroacetamide and digested by adding 30 µl of 10 ng/µl Trypsin solution. […]
Precursor tolerance was set to 10 ppm and fragment ion tolerance to 20 ppm. […] Label-free quantification[47] and match between runs was enabled[46].
Competition pulldown assay data analysis: Relative residual binding of proteins to the affinity matrix was calculated based on the protein intensity ratio relative to the DMSO control for every single inhibitor concentration. […]

With `Cc1ccc(C(=O)N(CCCNC(=O)CCOCCOCCOCCN)[C@@H](c2nc3cc(Cl)ccc3c(=O)n2Cc2ccccc2)C(C)C)cc1` [compound 19, (R)-N-(1-amino-12-oxo-3,6,9-trioxa-13-azahexadecan-16-yl)-N-(1-(3-benzyl-7-chloro-4-oxo-3,4-dihydroquinazolin-2-yl)−2-methylpropyl)−4-methylbenzamide], on KIF11, the “additional targets in proteome-wide pulldown” value is given as “No additional targets were detected”. The “enrichment / pulldown of LC3/GABARAP by affinity matrix” value with LC3/GABARAP is listed as “did not enrich”.

For `COc1ccc(/C=C/CCCCOc2ccc(C(=O)c3cccc(C(=O)O)c3)cc2CCC(=O)O)cc1` [compound 20], the “interaction with LC3/GABARAP family members in FP displacement assay” value in assay [1] is “selective binding to LC3 family members”. Moreover, at LC3A [2] (listed as LY223982), the “Enthalpy (ITC, repeated titration)” value was -11,64 kCal/mol and -9,814 kCal/mol; the “Entropy (ITC, repeated titration)” value is -12,88 Cal/(mol*K) and -16,4 Cal/(mol*K) and -10,29 Cal/(mol*K); the “Stoichiometry, n (ITC, repeated titration)” value is 1,011 and 1,038 and 1,021. On LC3A [2] (read-out: KD (ITC, repeated titration)), the Kd is 11.2 µM and 11.4 µM and 10 µM. The “enthalpies observed in ITC experiments” value on LC3A [3] is recorded as -7 kcal/mol.

For the origin of these results see article PMC11589570, “Critical assessment of LC3/GABARAP ligands used for degrader development and ligandability of LC3/GABARAP binding pockets” (Nature Communications, 2024).
